Structures can show the parent of a compound that is named as a salt.
Target: CRBN-DDB1 (Homo sapiens (Human), UniProt Q96SW2)
Experiment: CRBN-DDB1 fluorescence polarization (FP) binding assay
Details: displacement of Thalidomide-Alexa Fluor or Pomalidomide-fluorescein probe
Method: Measuring compound ligand binding to CRBN-DDB1 was carried out using an established sensitive and quantitative in vitro fluorescence polarization (FP) based binding assay. […] Compounds were dispensed from serially diluted DMSO stock into black 384-well compatible fluorescence polarization plates using an Echo acoustic dispenser. Compound binding to CRBN-DDB1 was measured by displacement of either a (−)-Thalidomide-Alexa Fluor® or Pomalidomide-fluorescein conjugated probe dye. […] Matching control wells excluding CRBN-DDB1 were used to correct for background fluorescence. Plates were read on an Envision plate reader with appropriate FP filter sets. The corrected S (perpendicular) and P (parallel) values were used to calculate fluorescence polarization (FP) with the following equation: FP=1000*(S−G*P)/(S+G*P).

CRBN-DDB1, sequence (Q96SW2 whole entry): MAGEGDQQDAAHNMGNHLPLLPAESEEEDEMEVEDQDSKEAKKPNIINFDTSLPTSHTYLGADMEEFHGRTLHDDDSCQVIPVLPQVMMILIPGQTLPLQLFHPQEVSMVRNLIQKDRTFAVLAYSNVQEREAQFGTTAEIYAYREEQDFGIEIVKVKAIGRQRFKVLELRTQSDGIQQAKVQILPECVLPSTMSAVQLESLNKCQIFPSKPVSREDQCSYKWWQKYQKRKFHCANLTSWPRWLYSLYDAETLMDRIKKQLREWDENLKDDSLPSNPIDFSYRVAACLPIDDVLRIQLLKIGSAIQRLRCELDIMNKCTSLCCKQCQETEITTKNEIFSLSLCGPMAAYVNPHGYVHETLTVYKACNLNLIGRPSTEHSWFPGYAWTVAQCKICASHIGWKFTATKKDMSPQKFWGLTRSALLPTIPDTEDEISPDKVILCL
CRBN-DDB1, sequence (Q16531 whole entry partner): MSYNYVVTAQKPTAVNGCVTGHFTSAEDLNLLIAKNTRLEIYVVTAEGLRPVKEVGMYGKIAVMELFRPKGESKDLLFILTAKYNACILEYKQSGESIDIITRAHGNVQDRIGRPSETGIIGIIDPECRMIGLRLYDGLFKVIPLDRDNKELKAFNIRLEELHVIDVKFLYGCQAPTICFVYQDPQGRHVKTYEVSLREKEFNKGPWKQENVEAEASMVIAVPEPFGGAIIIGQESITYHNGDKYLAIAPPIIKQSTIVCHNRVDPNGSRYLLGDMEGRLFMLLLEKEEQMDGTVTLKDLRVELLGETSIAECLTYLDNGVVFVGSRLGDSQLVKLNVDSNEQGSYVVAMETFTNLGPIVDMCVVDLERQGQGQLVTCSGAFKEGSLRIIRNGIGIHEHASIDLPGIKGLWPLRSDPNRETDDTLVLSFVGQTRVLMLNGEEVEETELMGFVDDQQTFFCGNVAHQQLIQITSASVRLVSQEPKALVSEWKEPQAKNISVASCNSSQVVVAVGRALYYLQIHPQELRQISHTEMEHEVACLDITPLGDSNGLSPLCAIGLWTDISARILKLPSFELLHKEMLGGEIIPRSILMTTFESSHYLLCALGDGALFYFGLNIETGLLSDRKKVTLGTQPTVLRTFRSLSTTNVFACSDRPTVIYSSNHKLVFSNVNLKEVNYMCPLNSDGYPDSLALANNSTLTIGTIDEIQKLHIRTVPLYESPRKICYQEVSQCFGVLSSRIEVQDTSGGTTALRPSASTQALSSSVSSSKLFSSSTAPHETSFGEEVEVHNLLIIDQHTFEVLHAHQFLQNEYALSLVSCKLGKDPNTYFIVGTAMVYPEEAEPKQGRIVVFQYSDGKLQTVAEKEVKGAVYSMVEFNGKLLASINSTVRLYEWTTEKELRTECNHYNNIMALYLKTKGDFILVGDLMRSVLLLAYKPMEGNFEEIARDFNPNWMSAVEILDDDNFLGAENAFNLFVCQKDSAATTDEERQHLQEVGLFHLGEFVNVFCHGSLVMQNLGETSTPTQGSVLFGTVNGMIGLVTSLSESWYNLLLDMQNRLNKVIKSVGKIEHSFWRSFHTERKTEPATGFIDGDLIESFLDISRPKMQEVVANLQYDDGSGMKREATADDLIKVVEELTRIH

| SMILES | Kd |
| --- | --- |
| CS(=O)(=O)Nc1ccc(C23CC2C(=O)NC3=O)cc1 (stereo not drawn) [Compound 7, N-(4-(2,4-dioxo-3-azabicyclo[3.1.0]hexan-1-yl)phenyl)methanesulfonamide] | > 100 µM |
| CC(C)(C)OC(=O)N1Cc2ccc(C3CCC(=O)NC3=O)cc2C1 (stereo not drawn) [Compound 54, 5-(2,6-Dioxo-piperidin-3-yl)-1,3-dihydro-isoindole-2-carboxylic acid tert-butyl ester] | 10 to 50 µM |
| CC(=O)Nc1ccc(C23CC2C(=O)NC3=O)cc1 (stereo not drawn) [Compound 6, N-(4-(2,4-dioxo-3-azabicyclo[3.1.0]hexan-1-yl)phenyl)acetamide] | > 100 µM |
| Cc1nc2cc(C3CCC(=O)NC3=O)ccc2s1 (stereo not drawn) [Compound 48, 3-(2-Methyl-benzothiazol-5-yl)-piperidine-2,6-dione] | < 10 µM |
| O=C1CCC(c2cn(-c3ccccc3)nn2)C(=O)N1 (stereo not drawn) [Compound 27, 3-(1-Phenyl-1H-[1,2,3]triazol-4-yl)-piperidine-2,6-dione] | 10 to 50 µM |
| CC1(c2ccccc2N)CCC(=O)NC1=O (stereo not drawn) [Compound 11, 3-(2-aminophenyl)-3-methylpiperidine-2,6-dione] | > 30 µM |
| O=C1CCC(c2nccc3ccccc23)C(=O)N1 (stereo not drawn) [Compound 58, 3-(Isoquinolin-1-yl)piperidine-2,6-dione] | 10 to 50 µM |
| CN1Cc2ccc(C3CCC(=O)NC3=O)cc2C1=O (stereo not drawn) [Compound 41, 3-(2-Methyl-3-oxo-2,3-dihydro-1H-isoindol-5-yl)-piperidine-2,6-dione] | 10 to 50 µM |
| Cn1cc(CC2CCC(=O)NC2=O)nn1 (stereo not drawn) [Compound 25, 3-(1-Methyl-1H-[1,2,3]triazol-4-ylmethyl)-piperidine-2,6-dione] | 50 to 100 µM |
| Cc1nc(C2CCC(=O)NC2=O)cn1-c1ccccc1 (stereo not drawn) [Compound 46, 3-(2-Methyl-1-phenyl-1H-imidazol-4-yl)-piperidine-2,6-dione] | 10 to 50 µM |
| Cn1cccc(C2CCC(=O)NC2=O)c1=O (stereo not drawn) [Compound 59, 3-(1-methyl-2-oxo-1,2-dihydropyridin-3-yl)piperidine-2,6-dione] | 50 to 100 µM |
| Cc1nc(C2CCC(=O)NC2=O)n2ccccc12 (stereo not drawn) [Compound 61, 3-(1-methylimidazo[1,5-a]pyridin-3-yl)piperidine-2,6-dione] | < 10 µM |
| O=C1CCC(Cc2cn(-c3ccccc3)nn2)C(=O)N1 (stereo not drawn) [Compound 24, 3-(1-Phenyl-1H-[1,2,3]triazol-4-ylmethyl)-piperidine-2,6-dione] | 10 to 50 µM |
| Cn1cnc2c(C3CCC(=O)NC3=O)cccc21 (stereo not drawn) [Compound 36, 3-(1-methyl-1H-benzo[d]imidazol-4-yl)piperidine-2,6-dione] | 10 to 50 µM |
| Cn1nc([C@H]2CCC(=O)NC2=O)c2ccccc21 [Compound 39] | 10 to 50 µM |
| Cn1nc(C2CCC(=O)NC2=O)c2ccc(N)cc21 (stereo not drawn) [Compound 51, 3-(6-amino-1-methyl-indazol-3-yl)piperidine-2,6-dione] | 50 to 100 µM |
| COc1ccccc1NC(=O)C1CCC(=O)NC1=O (stereo not drawn) [Compound 15] | 10 to 50 µM |
| CN(C)CC(=O)Nc1ccc(C23CC2C(=O)NC3=O)cc1 (stereo not drawn) [Compound 5, 2-(dimethylamino)-N-(4-(2,4-dioxo-3-azabicyclo[3.1.0]hexan-1-yl)phenyl)acetamide] | > 100 µM |
| Nc1ccc(C23CC2C(=O)NC3=O)cc1 (stereo not drawn) [Compound 4, 1-(4-Aminophenyl)-3-azabicyclo[3.1.0]hexane-2,4-dione] | > 30 µM |
| O=C1CCC(c2cn(-c3ccccc3)cn2)C(=O)N1 (stereo not drawn) [Compound 64, 3-(1-phenyl-1H-imidazol-4-yl)piperidine-2,6-dione] | 10 to 50 µM |
| O=C1CCC(C(=O)Nc2ccccc2F)C(=O)N1 (stereo not drawn) [Compound 18] | > 100 µM |
| Cn1cc(C2CCC(=O)NC2=O)c2ccccc21 (stereo not drawn) [Compound 29, 3-(1-Methyl-1H-indol-3-yl)-piperidine-2,6-dione] | < 10 µM |
| Cn1nc(C2(C)CCC(=O)NC2=O)c2ccccc21 (stereo not drawn) [Compound 47, 3-Methyl-3-(1-methyl-1H-indazol-3-yl)-piperidine-2,6-dione] | 10 to 50 µM |

| SMILES | Kd |
| --- | --- |
| O=C1CCC(C(=O)Nc2ccccc2)C(=O)N1 (stereo not drawn) [Compound 14] | 50 to 100 µM |
| Cn1nc(C2CCC(=O)NC2=O)cc1-c1ccccc1 (stereo not drawn) [Compound 30, 3-(1-methyl-5-phenyl-1H-pyrazol-3-yl)-piperidine-2,6-dione] | < 10 µM |
| CN(C(=O)C1CCC(=O)NC1=O)c1ccccn1 (stereo not drawn) [Compound 20] | > 100 µM |
| O=C1NC(=O)C2(c3ccc([N+](=O)[O-])cc3)CC12 (stereo not drawn) [Compound 3, 1-(4-Nitrophenyl)-3-azabicyclo[3.1.0]hexane-2,4-dione] | > 100 µM |
| CN(C(=O)C1CCC(=O)NC1=O)c1ccccc1F (stereo not drawn) [Compound 21] | 50 to 100 µM |
| Cn1c(=O)c(C2CCC(=O)NC2=O)cc2ccccc21 (stereo not drawn) [Compound 40, 3-(1-Methyl-2-oxo-1,2-dihydro-quinolin-3-yl)-piperidine-2,6-dione] | < 10 µM |
| COc1cccc(C2CCC(=O)NC2=O)n1 (stereo not drawn) [Compound 34, 3-(6-methoxypyridin-2-yl)piperidine-2,6-dione] | 10 to 50 µM |
| Cn1nc([C@@H]2CCC(=O)NC2=O)c2ccccc21 [Compound 38] | < 10 µM |
| Cn1c(C2CCC(=O)NC2=O)nc2ccccc21 (stereo not drawn) [Compound 62, 3-(1-methyl-1H-benzo[d]imidazol-2-yl)piperidine-2,6-dione] | 50 to 100 µM |
| Cn1cc(C2CCC(=O)NC2=O)nn1 (stereo not drawn) [Compound 26, 3-(1-Methyl-1H-[1,2,3]triazol-4-yl)-piperidine-2,6-dione] | 50 to 100 µM |
| O=C1CCC(C(=O)Nc2cccnc2)C(=O)N1 (stereo not drawn) [Compound 16] | > 100 µM |
| O=C1CCC(C(=O)Nc2ccccn2)C(=O)N1 (stereo not drawn) [Compound 17] | > 100 µM |
| O=C1NC(=O)C2(c3ccccc3)CC12 (stereo not drawn) [Compound 1, 1-phenyl-3-azabicyclo[3.1.0]hexane-2,4-dione] | > 100 µM |
| Cn1nc(CC2CCC(=O)NC2=O)c2ccccc21 (stereo not drawn) [Compound 13, 3-((1-methyl-1H-indazol-3-yl)methyl)piperidine-2,6-dione] | > 100 µM |
| O=C1NC(=O)C2(c3ccccc3)CC1C2 [Compound 2, 1-Phenyl-3-azabicyclo[3.1.1]heptane-2,4-dione] | > 30 µM |
| Cn1nc(C2CCC(=O)NC2=O)c2ccccc21 (stereo not drawn) [Compound 37, 3-(1-Methyl-1H-indazol-3-yl)-piperidine-2,6-dione] | < 10 µM |
| Cn1c(=O)oc2ccc(C3CCC(=O)NC3=O)cc21 (stereo not drawn) [Compound 49, 3-(3-Methyl-2-oxo-2,3-dihydro-benzooxazol-5-yl)-piperidine-2,6-dione] | 10 to 50 µM |
| O=C1CCC(Cc2ccccc2)C(=O)N1 (stereo not drawn) [Compound 50, 3-benzylpiperidine-2,6-dione] | 10 to 50 µM |
| CC(C)(C)OC(=O)N1Cc2cccc(C3CCC(=O)NC3=O)c2C1 (stereo not drawn) [Compound 42, 4-(2,6-dioxo-piperidin-3-yl)-1,3-dihydro-isoindole-2-carboxylic acid tert-butyl ester] | 10 to 50 µM |
| Cn1c(CC2CCC(=O)NC2=O)nc2ccccc21 (stereo not drawn) [Compound 12] | 50 to 100 µM |
| Cn1ccc2ccc(C3CCC(=O)NC3=O)nc21 (stereo not drawn) [Compound 35, 3-(1-Methyl-1H-pyrrolo[2,3-b]pyridin-6-yl)-piperidine-2,6-dione] | 10 to 50 µM |
| Cn1nc(C2CCC(=O)NC2=O)c2ccc(NC3CCNCC3)cc21 (stereo not drawn) [Compound 53, 3-(1-Methyl-6-(piperidin-4-ylamino)-1H-indazol-3-yl)piperidine-2,6-dione hydrochloride] | < 10 µM |
